This note sets out measurements from publication PMC4683533, “Discovery of novel INK4C small-molecule inhibitors to promote human and murine hematopoietic stem cell ex vivo expansion” (Scientific Reports, 2015).

In one assay the test system is HSCs (bone marrow MNCs). As to the kind of experiment: cobblestone area forming cells (CAFC) assay with limiting dilution assay (LDA). In kind it is cell-based, mouse. Particulars: day 35. How it is done:
We also investigated whether the increased number of phenotypic SLAM^+LT-HSCs in short-term culture assays was correlated with an increase in functional LT-HSCs. Cobblestone area forming cells (CAFC) assay combined with limiting-dilution assays (LDA) were performed to measure the frequency of HSCs[19][22][30]. Compared with the control group (HSC frequency is 1 in 112,559 of the original plated cells), the frequency of HSC at day 35 (indicating the activity of hematopoietic reconstitution capacity) was 2.7-fold and 3.0-fold higher in the cultures treated with XIE18–6 (HSC frequency is 1 in 42,490 of the original plated cells) and compound 40 (HSC frequency is 1 in 37,524 of the original plated cells) (p < 0.001, Fig. 3C), respectively.
Freshly isolated bone marrow MNCs from mice, 6–8 weeks old, were plated in a 24-well plate with 1 mL Dexter’s medium at a density of 2 × 10^6 cells per mL in the absence or presence of different doses of the tested compounds. The culture was maintained at 33 °C with 5% CO2. The number of cobblestone areas (CAs) was counted weekly. The medium was also replaced with half fresh medium on a weekly basis. For the limiting dilution analysis (LDA) of the test cells, different limiting doses were plated on the irradiated stromal cells in 96-well plates containing 200 μL of M5300 medium (StemCell Technologies) supplemented with 10^−6 M hydrocortisone. Each group was done with 20 replicates well. Small-molecule compounds were added to the co-culture system at different doses. Half of the medium in each well was replaced with fresh medium containing the test compounds weekly. The existence of CA in each well was evaluated under an inverted microscope at weekly intervals for 5 weeks. Based on the Poisson distribution of the negative wells, the frequency of long-term initiating cells was calculated with L-Calc software (StemCell Technologies).

Assay [1] deals with LT-repopulating HSCs (CD34-LKS cells). The assay can be described thus: competitive bone marrow transplantation (cBMT) assay. Type of assay: in vivo, mouse. How it is done:
Figure 3 Treatment of c-Kit-enriched murine BM cells with p18SMI compounds enhances HSC expansion. (A) The average number of total cells, HSPCs (Lin^−Sca1^+) and long term (LT)-HSCs (Lin^-Sca1^+CD48^−CD150^+) were analyzed by flow cytometry. (B) Single CD34^−LKS cell were deposited into each well of a 96-well plate, along with differentiation medium plus different concentrations of p18SMI compounds to show the dose-response effect of p18SMI compounds. (C) CAFC-LDA assay of cells treated with XIE18-6, compound 40 and DMSO to reveal the frequency of primitive HSCs. Above data (A–C) is mean ± SEM for all experiments of two or more and were performed in duplicate or triplicate. (D) Experimental design for transplantation (n = 10). CD34^-LKS cells were sorted into 96-well plates at 50 cells/well and cultured for 3 days with cytokine plus 20 μM of compounds or DMSO. Cells from each well were mixed with 2 × 10^6 freshly isolated bone marrow MNCs and co-transplanted by tail-vein injection into lethally irradiated CD45.2 recipient mice. 16 weeks after transplantation, bone marrow MNCs were stained to determine the engraftment level of donor cells. Bone marrow MNCs were also stained for lineage analysis. Multi-lineage differentiation was examined by flow cytometry. GM, T and B indicate lineages for myeloid, T and B cells, respectively. (E,F) The engraftment levels at 16 weeks after primary transplantation, and multi-lineage differentiation profile. Data is mean ± SEM for all experiments (***p < 0.001, **p < 0.01). TEXT PRINTED IN THE PICTURE: (E) #40: Engrafment%: *** 5.93X | (E) XIE18-6: Engrafment%: ** 3.01X DOUBTS OF THE COPYIST ABOUT THIS PICTURE: Panel E: 5.93X and 3.01X are printed on brackets running from #40 and from XIE18-6 to DMSO. No measure is printed beside them, so the axis label 'Engrafment%' was used as the measure.
The increased frequency and total number of functional LT-HSCs after treatment with p18SMI compounds was further confirmed by competitive bone marrow transplantation (cBMT) assay (Fig. 3D). CD34^-LKS cells were first sorted and cultured w/o p18SMI compound for 3 days. Then the cultured cells were gathered and co-transplanted into lethally irradiated mice with competitor cells. […] Moreover, the engraftment of the group treated with compound 40 was double of that of the group treated with XIE18–6.

The test system of assay [2] is c-Kit-enriched BM cells (progenitor cells, HSPCs, LT-HSCs). The assay can be described thus: CFSE cell division assay. Particulars: LT-HSC. Type of assay: cell-based, mouse. The source says: We have previously shown that deficiency of p18 may enhance HSCs expansion by inducing primitive phenotypes after each cell division in vivo[19]. To obtain direct evidence that compound 40 promotes primitive phenotypes after each cell division, we measured cell divisions in distinct immunophenotypically-defined populations of cells treated with p18SMI compound. 5- (and 6-) carboxy-fluorescein diacetatesuccinimidylester (CFSE) dye was used to label the c-Kit-enriched BM cells before culture. Surface markers for progenitor cells, HSPCs and LT-HSCs were used to co-stain the BM cells that were harvested 5 days after treatment with the p18SMI compound. The number of initial cell divisions was measured based on the intensity of CFSE in each cell population. Consistent with previous phenotype results, little effect on the progenitor cells and HSPCs populations was observed (Fig. 5A).
Prior to culture, cKit-enriched BM cells (1 × 10^6/mL) were labeled with 5- (and 6-) carboxy-fluorescein diacetatesuccinimidylester (CFSE) dye (3 μM, Molecular Probes) in PBS supplemented with 0.1% bovine serum albumin. Labeling was performed in the dark at 37 °C for 10 min. […] During cell division, CFSE is distributed equally between daughter cells so that the generation of cells could be reflected by the content of CFSE and measured by the intensity of fluorescence. […]

In the next assay the test system is LT-HSCs. As to the kind of experiment: dependence of HSC expansion on CDK4/6 versus CDK2 (co-treatment with CDK inhibitors). In kind it is cell-based, mouse. The source says: To assess a direct role for p18-CDK6 signaling in HSCs expansion induced by compound 40, we used the CDK4/6-specific inhibitor PD0332991 to block CDK6 activation. As a control, we blocked CDK2 with SNS032, a CDK2 selective inhibitor. […] So here we wanted to explore whether p18SMI compound’s HSCs expansion effect was abrogated by CDK4/6 inhibitor or CDK2 inhibitor.

For the molecule `O=C([O-])c1ccc(S(=O)(=O)NC2CCCCC2)cc1.[Na+]` [Compound 40, sodium 4-(N-cyclohexylsulfamoyl)benzoate], in the assay on HSCs (bone marrow MNCs), the “HSC frequency (1 in x of the original plated cells)” value was 37,524 and the “frequency of HSC, fold higher than control group” value is 3.0 fold. Besides, in assay [1] (16 weeks after transplantation), the “engraftment relative to the group treated with XIE18–6” value is “double” and the “multi-lineage differentiation profile (GM, T, B) compared with the control group” value is given as “did not cause predominant growth of any specific lineages”. The “increase in engraftment compared with the DMSO control group” value in assay [1] (CD34-LKS cells cultured 3 days with 20 μM compound, co-transplanted with competitor cells into lethally irradiated mice, bone marrow 16 weeks after transplantation) was found to be 5.93 fold. In addition, the “increase in engraftment compared with the uncultured group” value in assay [1] (cells cultured 3 days with 20 μM compound, 16 weeks after transplantation) was found to be 4.34 fold. Moreover, in assay [2], the “% Divided” value is 65.2%. Further, the “number of LT-HSCs” value in the assay on LT-HSCs (in the PD0332991-treated group (CDK4/6-specific inhibitor)) was “failed to increase”. Besides, in the assay on LT-HSCs (in the SNS032-treated group (CDK2 selective inhibitor)), the “number of LT-HSCs” value is “still enhanced”.
